According to patent US20060122148A1, “High affinity receptors for helicobacter pylori and use thereof” (priority 2002, published 2006):

Assays:
[1] = system: H. pylori strain CCUG 17874; test: Chromatogram binding assay of 35S-labeled H. pylori to gangliosides on thin-layer plates; design: species or system Helicobacter pylori; details: for Binding to ganglioside (in words): strain CCUG 17874, thin-layer plates, non-binding = no binding at 4 μg; for Amount at which binding was saturated: dilutions of gangliosides on thin-layer plates
[2] = system: H. pylori strain CCGU 17874; test: Overlay of TLC plates with radiolabeled bacteria (S-3-PG derivatives, glycolipids, neoglycolipids); type: binding, Helicobacter pylori; details: for Binding of H. pylori on TLC plates (in words): overlay with radiolabeled bacteria
H. pylori strain 032 = test: Overlay of TLC plates with radiolabeled bacteria (PGCs); type: binding, Helicobacter pylori; details: 032 strain from broth
H. pylori strain J99 = test: Chromatogram binding assay of 35S-labeled H. pylori to gangliosides on thin-layer plates; design: species or system Helicobacter pylori

Substance | Binding to ganglioside (in words) [1] | Binding to ganglioside (in words) (H. pylori strain J99) | further results
NeuAcα3Galβ4GlcNAcβ3Galβ4(Fucα3)GlcNAcβ3Galβ4Glcβ1Cer [No. 12] | recognized |  | 
NeuAcα3Galβ4Glcβ1Cer [No. 1] | inactive |  | 
NeuAcα3Galβ4GlcNAcβ3Galβ4Glcβ1Cer [No. 2] |  |  | Sensitivity of detection ([2]; some H. pylori batches): 0.3-0.4 pmol/mm^2; Binding of H. pylori on TLC plates (in words) (H. pylori strain 032): do not bind
NeuAcα3Galβ4(Fucα3)GlcNAcβ3Galβ4(Fucα3)GlcNAcβ3Galβ4Glcβ1Cer [No. 13] | recognized |  | Amount at which binding was saturated [1]: approximately 100 pmole
NeuAcα3Galβ4GlcNAcβ3Galβ4GlcNAcβ3Galβ4GlcNAcβ3Galβ4Glcβ1Cer [No. 10] | recognized |  | 
NeuAcα3Galβ4GlcNAcβ6(NeuAcα3Galβ4GlcNAcβ3)Galβ4GlcNAcβ3Galβ4Glcβ1Cer [No. 16] | recognized | recognized | 
NeuAcα3Galβ4GlcNAcβ3Galβ4GlcNAcβ3Galβ4Glcβ1Cer [No. 8] | recognized | recognized | Binding of H. pylori on TLC plates (in words) [2]: stronger than binding to sialoneotetraosylceramide; Amount at which binding was saturated [1]: approximately 100 pmole; Relative binding affinity ([1]; strain CCUG 17874, serial dilutions 1-100 pmole on thin-layer plates, densitometry): comparable to the binding of cholera toxin B-subunits to the GM1 ganglioside
NeuAcα3Galβ3(Fucα4)GlcNAcβ3Galβ4Glcβ1Cer [No. 6] | did not recognize | occasional binding | 
NeuAcα3Galβ4GlcNAcβ3Galβ4Glc-HDA (or -branched lipid) |  |  | Binding of H. pylori on TLC plates (in words) [2]: active
Galα3(Fucα2)Galβ4GlcNAcβ6(NeuAcα3Galβ4GlcNAcβ3)Galβ4GlcNAcβ3Galβ4Glcβ1Cer [No. 19] | recognized | recognized | Detection level ([1]; thin-layer plates): approximately 100 pmole
